Key:
Assay type in all cases: in vivo
IL-4, IL-5, and IL-13 = assay: Cytokines in bronchoalveolar lavage fluid by ELISA, asthma-induced mice; details: asthma-induced mice; for expression levels of the cytokines (IL-4, IL-5, and IL-13): Experiment Result 7, orally administered daily, FIG. 20
Experimental: (§1) Eight-week-old female […] mice (Orient Bio Korea Inc., Korea) having no certain pathogen were accommodated in an aseptic laminar-flow cabinet, and bred by supplying a standard solid feed ad libitum. When the following experiment was performed, the mice were made to correspond to 7- to 8-weeks old, and all laboratory animals were managed according to the protocol approved by the Institutional Animal Care and Use Committee of the Chonbuk National University Medical School.
(§2) Also, on days 21 and 28 from the experimental starting date, the mice were put into a plastic box (Plexiglas (Rohm & Haas, Philadelphia, Pa.) exposure chamber; 24.5 cm×40.5 cm×15.0 cm), and 1.5% ovalbumin was evaporated using an ultrasonic nebulizer (NE-U12; output 0.8 mL/min; Omron, Japan), and injected into the box for 30 minutes so that the mice inhaled the evaporated ovalbumin (secondary challenge).
(§3) After the mice were anesthetized, a thin tube was inserted into the airway, and a piston process was repeated using a syringe filled with 0.2 mL of physiological saline to obtain a bronchoalveolar lavage fluid. The bronchoalveolar lavage fluid obtained through this piston process was stored at −70° C. when it was not immediately used in the experiments.
(§4) A level of cytokines in the bronchoalveolar lavage fluid obtained in Experimental Method 2 was measured using an ELISA kit. Here, ELISA kits specifically manufactured for TNF-α, IL-4, IL-5, and IL-13 were used.
Preparation Example 3 (α,δ-NA-L-G) or α,δ N-acetyl-D-glutamine was orally administered to the asthma-induced mice of Experimental Method 1 at a concentration of 100, 200, 400 or 800 μg/kg/day 30 minutes before a secondary airway challenge, and levels of IL-4, IL-5, and IL-13 were measured through the method described above in Experimental Method 4 24 hours after the secondary challenge. The results are shown in A and B of FIG. 4.

asthma-induced mice = assay: Bronchial hypersensitivity reaction (Rrs value, methacholine), asthma-induced mice; details: for bronchial hypersensitivity reaction: Experiment Result 7, orally administered daily, FIG. 21
Experimental: as §1, §2
45 mg/kg of sodium pentobarbital was intraperitoneally injected into the mice prepared in Experimental Method 1 to anesthetize the mice, and the airways were cut and an 18 gauge needle was inserted into the airways. Thereafter, the needle was connected to a small-sized animal respirator connected to a computer, and the computer system was adjusted to a respiration rate of 150 breaths per minute. Then, methacholine in the form of aerosol was fed at an increasing concentration of 5.0 to 50 mg/mL so that the mice inhaled the methacholine. Then, an airway response was measured, and indicated as an Rrs value.
Preparation Example 3 (α,δ-NA-L-G) or α,δ N-acetyl-D-glutamine was orally administered to the asthma-induced mice of Experimental Method 1 at a concentration of 200 or 400 μg/kg/day 30 minutes before a secondary airway challenge, and the bronchial hypersensitivity reaction was measured 48 hours after the secondary challenge using the method described in Experimental Method 5. The results are shown in A and B of FIG. 5.

[1] = test system: neutrophils and eosinophils introduced into the airway; assay: Inflammatory cells (neutrophils and eosinophils) in bronchoalveolar lavage fluid, Diff-Quik staining, asthma-induced mice; details: asthma-induced mice; for cell numbers of neutrophils and eosinophils: Experiment Result 7, orally administered daily, FIG. 19
Experimental: as §1, §2, §3
50 μL of the bronchoalveolar lavage fluid obtained in Experimental Method 2 was put on a slide used for the cytospin, and centrifuged for 30 minutes. Thereafter, Diff-Quik staining was performed, and inflammatory cells (neutrophils and eosinophils) were observed using a microscope.
Preparation Example 3 (α,δ-NA-L-G) or α,δ N-acetyl-D-glutamine (α,δ-NA-D-G) was orally administered to the asthma-induced mice of Experimental Method 1 daily from the experimental starting date at a concentration of 50, 100, or 200 μg/kg/day, and the cell numbers of neutrophils and eosinophils introduced into the airway through the method of Experimental Method 3 were measured. The results are shown in A and B of FIG. 3. In this case, the cell numbers were measured at 10 hours (neutrophils) or 48 hours (eosinophils) after a secondary challenge.

CK2α protein = assay: Western blot of CK2α protein in lung of asthma-induced mice; details: administered daily; 1 or 2 hours after the secondary challenge; FIG. 10
Experimental: as §2
A tissue was extracted from each of the mice manufactured in Experimental Method 1, and finely ground to a cell level. Thereafter, the cells were lysed in a cell lysis buffer containing a protease inhibitor to obtain a cell lysate. The cell lysate was centrifuged to obtain protein. Then, an equivalent amount of the proteins obtained from the cells were loaded on an SDS-PAGE gel and electrophoresed. The proteins present in the electrophoresed gel were transferred to a PVDF membrane. The PVDF membrane was washed, and added to a blocking buffer in which 5% skim milk was included in a TBS-T buffer, and incubated at room temperature. Then, the PVDF membrane was incubated at room temperature with an antibody diluted 1:1,000 in a TBS-T buffer containing 3% BSA. […] The PVDF membrane was washed three times with a TBS-T buffer, and visualized and quantified using an ECL Western blotting detection reagent. […]
Specifically, the secondary challenge (ovalbumin injection) was performed according to the method described above in Experimental Method 1, and the lungs were extracted after an hour, and then measured according to the method described above in Experimental Method 7. […] Also, the level of TNF-α corresponding to an NK-κB-dependent cytokine was measured by ELISA according to the method described above in Experimental Method 4. […]
The secondary challenge (ovalbumin injection) was performed according to the method described above in Experimental Method 1, and the lungs were extracted after 1 or 2 hours, and then measured according to the method described above in Experimental Method 7. […]

NF-κB and TNF-α = assay: NF-κB (Western blot) and TNF-α (ELISA) in asthma-induced mice; details: administered daily
Experimental: as §2, §4
A tissue was extracted from each of the mice manufactured in Experimental Method 1, and finely ground to a cell level. Thereafter, the cells were lysed in a cell lysis buffer containing a protease inhibitor to obtain a cell lysate. The cell lysate was centrifuged to obtain protein. Then, an equivalent amount of the proteins obtained from the cells were loaded on an SDS-PAGE gel and electrophoresed. The proteins present in the electrophoresed gel were transferred to a PVDF membrane. The PVDF membrane was washed, and added to a blocking buffer in which 5% skim milk was included in a TBS-T buffer, and incubated at room temperature. Then, the PVDF membrane was incubated at room temperature with an antibody diluted 1:1,000 in a TBS-T buffer containing 3% BSA. Then, the PVDF membrane was washed with a TBS-T buffer, and incubated at room temperature for an hour with a dilute solution containing HRP-bound IgG. The PVDF membrane was washed three times with a TBS-T buffer, and visualized and quantified using an ECL Western blotting detection reagent.
Here, antibodies specific to elastin, caspase-3, collagen, MKP-1, p-cPLA, p-p38, NF-κB(p65), CK2α, GAPDH, or β-actin were used in the Western blot.
Specifically, the secondary challenge (ovalbumin injection) was performed according to the method described above in Experimental Method 1, and the lungs were extracted after an hour, and then measured according to the method described above in Experimental Method 7. The results are shown in A of FIG. 9. Also, the level of TNF-α corresponding to an NK-κB-dependent cytokine was measured by ELISA according to the method described above in Experimental Method 4. The results are shown in B of FIG. 9. […]
The secondary challenge (ovalbumin injection) was performed according to the method described above in Experimental Method 1, and the lungs were extracted after 30 or 60 minutes, and then measured according to the method described above in Experimental Method 7. […] Also, the level of TNF-α corresponding to an NK-κB-dependent cytokine was measured by ELISA according to the method described above in Experimental Method 4. […]

| SMILES | expression levels of the cytokines (IL-4, IL-5, and IL-13) (IL-4, IL-5, and IL-13) | bronchial hypersensitivity reaction (asthma-induced mice) | cell numbers of neutrophils and eosinophils [1] | other results |
| --- | --- | --- | --- | --- |
| CC(=O)NC(=O)CC[C@H](NC(C)=O)C(=O)OCc1ccccc1 [Preparation Example 2, Benzyl 2,5-diacetamido-5-oxopentanoate] | decreased | inhibited | decreased |  |
| CCOC(=O)[C@H](CCC(=O)NC(C)=O)NC(C)=O [Preparation Example 4, Ethyl 2,5-diacetamido-5-oxopentanoate] | decreased | inhibited | decreased |  |
| COC(=O)[C@H](CCC(=O)NC(C)=O)NC(C)=O [Preparation Example 6] | decreased | inhibited | decreased |  |
| Oc1ccc(-c2nc(-c3ccncc3)c(-c3ccc(F)cc3)[nH]2)cc1 [SB202190, reference compound] |  |  |  | level of the CK2α protein (CK2α protein): decreased |
| Brc1c(Br)c(Br)c2n[nH]nc2c1Br [inhibitor of the CK2α protein, TBBt, reference compound] |  |  |  | level of the presence of the TNF-α protein (NF-κB and TNF-α; ELISA, FIG. 11B): decreased; level of the NF-κB protein (NF-κB and TNF-α; at 30 and 60 minutes after secondary challenge, FIG. 11): decreased |
| CC(=O)NC(=O)CC[C@@H](NC(C)=O)C(=O)O [α,δ N-acetyl-D-glutamine, reference compound] |  |  |  | levels of the cytokines (IL-4, IL-5, IL-13) (IL-4, IL-5, and IL-13; oral 100, 200, 400 or 800 μg/kg/day, regardless of the concentration, 24 hours after secondary challenge, FIG. 4B): did not inhibit; Rrs value (bronchial hypersensitivity reaction) (asthma-induced mice; oral 200 or 400 μg/kg/day 30 minutes before secondary challenge, 48 hours after, methacholine 5.0 to 50 mg/mL, FIG. 5): did not exhibit an inhibitory effect; inflow of the neutrophils and eosinophils into the airway ([1]; oral daily 50, 100 or 200 μg/kg/day, neutrophils 10 hours, eosinophils 48 hours after secondary challenge, FIG. 3): not inhibited |
